Entries after “also recorded” stand apart in the source; their conditions may differ. Structures can show the parent of a compound that is named as a salt. k = constrained ethyl (cEt); d = 2'-deoxy (DNA)
How the values were obtained:
[1] = tested on: REM2-KPf/fC pancreatic tumors; experiment: In vivo drug therapy of tumor-bearing REM2-KPf/fC mice, reporter frequency by flow cytometry; design: species or system mouse; conditions: increasing doses (200 or 500 mg/kg IP)
Description: The development of the reporter gave us a unique opportunity to determine whether it could be used as a new image based tool to identify therapy resistant cells in pancreatic cancer. The chemotherapeutic agent gemcitabine remains the standard of care for adjuvant treatment of pancreatic cancer and is the most commonly used single agent in the treatment of advanced disease. Despite this, clinical response rates to gemcitabine are below 10% and it fails to prevent relapse after surgery in 85% of patients. Gemcitabine was delivered to tumor-bearing REM2-KPf/fC mice in vivo at increasing doses to determine the composition of residual disease. […] Importantly, these experiments identify Msi reporter positive cells as the predominant gemcitabine resistant population.
9-10 week old REM2-KP^f/fC mice were treated with Gemcitabine alone or in combination with Crizotinib or iBet762 for 6 days. On day 6, tumors were removed, dissociated (as described above), counted for total cellular content, stained with anti-mouse EpCAM antibody and analyzed for reporter expression by flow cytometry. Gemcitabine (Sigma, G6423) was resuspended in H2O at 20 mg/ml and delivered at 200 mg/kg or 500 mg/kg by IP injection twice over 6 days (on day 0 and 3). […]

[2] = tested on: Msi2 Reporter KPf/fC cells; experiment: In vitro gemcitabine treatment with live imaging of Msi2 reporter KPf/fC cells; type: cell-based, mouse; conditions: 10 μM gemcitabine, imaged up to 48 h
pancreatic cancer = conditions: cited from earlier work
MSI1 RNA = experiment: MSI1 expression after ASO free uptake (q-RT-PCR); type: cell-based, human; conditions: 24 hours, MIA PaCa-2 cells
Method: (FIG. 8 F to FIG. 8H) Real time PCR analysis of Msi expression following ASO free uptake in MIA PaCa-2 cells. MIA PaCa-2 cells were treated with 2 Gen 2.5 cEt ASOx target MSI1 or Control Gen 2.5 ASO for 24 hours, RNA was isolated and target knockdown (MSI1 RNA level) was determined by q-RT-PCR. IC50 values for each ASO were calculated using GraphPad Prism software; each treatment condition was performed in triplicate. (FIG. 8I) Colony formation assay in MSI1 ASO-treated MIA PaCa-2 cells after weekly delivery of control or MSI1 ASOs; colonies were counted after 4 weeks; n=3 for each ASO tested. (FIG. 8J) In vivo tracking of tumor volume in MSI1 ASO treated MIA PaCa-2 tumors with intratumoral delivery of control or MSI1 ASOs every day for 5 days followed by 2 days off; n=5 for each ASO tested. Nonlinear regression was used to determine the difference in slope between Control ASO and MSI1-ASO-1 (p<0.001). (FIG. 8K) In vivo tracking of tumor volume of primary KP^f/fC tumors with intratumoral delivery of control ASO or MSI1 ASOs following tumor establishment (n=4). […]
To identify human Msi ASO inhibitors, rapid throughput screens were performed to identify effective ASOs as previously described (Wang, J. C. Y. & Dick, J. E. Cancer stem cells: lessons from leukemia. Trends in Cell Biology 15, 494-501 (2005); Reya, T., Morrison, S. J., Clarke, M. F. & Weissman, I. L. Stem cells, cancer, and cancer stem cells. Nature 414(6859):105-11 (2001); Carroll, J. B. et al. Potent and Selective Antisense Oligonucleotides Targeting Single-Nucleotide Polymorphisms in the Huntington Disease Gene/Allele-Specific Silencing of Mutant Huntingtin. Molecular Therapy 19, 2178-2185 (2009); Samuel, V. T. et al. Targeting foxo1 in mice using antisense oligonucleotide improves hepatic and peripheral insulin action. […] Gene expression was assessed with taqman probes for MSI1 and MSI2. […] Colonies were counted 21 days after the first ASO treatment. […] Tumor measurements were recorded every 3 days. […]

blast crisis CML = experiment: In vivo identification of therapy-resistant residual leukemia cells after Gleevec; design: species or system mouse; conditions: Gleevec 150 mg/kg daily oral gavage, NSG mice
Method: (FIG. 41A) The strategy used to track residual leukemia cells in vivo. KLS cells isolated from Msi2^GFP/Actb-DsRed mice were co-infected with BCR-ABL1 and NUP98-HOXA9 and subsequently transplanted into NOD-Scid IL2Rg^null (NSG) recipient mice. Fourteen days post-transplantation (D14), recipient mice were treated daily with Gleevec or vehicle alone (control) for […] and analyzed by flow cytometry on D20. (FIG. 41B) Average frequency of Msi2+ (% GFP^+) leukemia cells determined at various anatomic sites from mice with blast crisis CML (n=3 mice). (FIG. 41C) Extent of residual disease at different anatomic sites following Gleevec treatment.
To test this, REM2 mice were crossed with mice expressing dsRed under the control of a ubiquitous promoter (Vintersten et al., 2004). […]
To determine sites that harbor therapy-resistant cells, bone marrow-derived KLS cells were isolated and sorted from Msi2^GFP/Acb-DsRed mice and cultured in X-Vivo 15 media (Lonza) supplemented with 50 μM 2-mercaptoethanol, 10% (vol/vol) fetal bovine serum, SCF (100 ng/ml, R&D Systems) and TPO (20 ng/ml, R&D Systems). […] Fifteen days post-transplantation (D15), recipient mice were treated daily with Gleevec (150 mg/kg) or H2O (control) via oral gavage for five consecutive days (D15 to D19) and analyzed by flow cytometry on D20.

blast crisis CML cells = conditions: versus 2-fold difference without treatment
Description: To account for any differences in cell survival between GFP+ and GFP− cells that is solely due to differences in differentiation status, we specifically analyzed cell survival of GFP+ and GFP− leukemia cells within the lineage-negative (Lin−) fraction.
To account for any differences in cell survival between GFP^+ and GFP^− cells that is solely due to differences in differentiation status, we specifically analyzed cell survival of GFP^+ and GFP^− leukemia cells within the lineage-negative (Lin^−) fraction.
Cells were then washed and stained with antibodies against lineage markers. Apoptosis assays were performed by staining cells with Annexin-V (BD Pharmingen).

For Nc1ccn([C@@H]2O[C@H](CO)[C@@H](O)C2(F)F)c(=O)n1 [gemcitabine, Gemcitabine], the “Effect on GFP+ (Msi2 reporter+) tumor cells” value [1] was “resistant and remained viable; also recorded: preferential survival”, the “Effect on GFP− (Msi2 reporter−) tumor cells” value [1] was “sensitive to gemcitabine and were preferentially eliminated” and the “Msi2 expression in Msi2 reporter− KPf/fC cells after in vitro treatment” value [2] was “do not turn on Msi2 expression”. The “Patients in whom it fails to prevent relapse after surgery” value (pancreatic cancer; adjuvant) was 85% and the Clinical response rates (pancreatic cancer; pancreatic cancer patients) was “below 10%”.
With “5′-TTACATATGATACAGG-3′ (sugars from the 5' end k3 d10 k3, backbone and methylation of C not given here) [ASO-2]” the “MSI1 expression in cell lines after ASO treatment” value (MSI1 RNA) was “inhibited MSI1 expression”.
For “5′-GGCTACTACGCCGTCA-3′ (sugars from the 5' end k3 d10 k3, backbone and methylation of C not given here) [Control ASOs]”, the “MSI1 expression in cell lines after ASO treatment” value (MSI1 RNA) was “did not suppress MSI1 expression”.
With Cc1ccc(NC(=O)c2ccc(CN3CCN(C)CC3)cc2)cc1Nc1nccc(-c2cccnc2)n1 [imatinib, imatinib mesylate] the “GFP+ leukemic cell population remaining following imatinib treatment” value (blast crisis CML; calvarium, femur, tibia, sternum or pelvis) was ~37%, the “GFP+ leukemic cell population remaining following imatinib treatment” value (blast crisis CML; spleen) was ~60% and the “Increase in difference in cell survival between Lin− GFP+ and Lin− GFP− cells following imatinib treatment” value (blast crisis CML cells) was 3 fold.

— patent US10578608B1, “Tools to detect, track and target cancer cells in vivo” (The Regents of the University of California, priority 2015, dated 2020)
